According to patent US9682087B2 (The Population Council, Inc., priority 2009, dated 2017):

How the values were obtained:
[1] = oral administration; cited from earlier work
[2] = Absorption of the hormones applied onto the skin; assay type: in vivo
Experimental: These levels of these hormones applied onto the skin result in 10% absorption, and thus correspond to a daily dose of about 300 to 450 μg of the progestin and about 100 to 150 μg of the estrogen. Expressed in a different manner, it would also be possible to equate these levels of absorption of these hormones to corresponding plasma levels in the patient.

ovulation = experiment: Ovulation blockade by NES at given serum level; assay type: in vivo; conditions: doses leading to serum levels of 250 pmol/L
[3] = tested on: androgenic, estrogenic or glucocorticoid actions; conditions: at therapeutic levels; cited from earlier work

Structure (SMILES) | activity when administered orally [1] | absorption rate ([2]; applied in a transdermal manner) | subjects in whom ovulation was blocked (ovulation) | androgenic, estrogenic or glucocorticoid actions [3] | absorption rate ([2]; female, human, in vivo)
C=C1C[C@H]2[C@@H]3CCC4=CC(=O)CC[C@@H]4[C@H]3CC[C@]2(C)[C@@]1(OC(C)=O)C(C)=O [NES, 16-methylene-17α-acetoxy-19-norpregn-4-ene-3,20-dione] | not active | approximately 10% | more than 95% | does not carry androgenic, estrogenic or glucocorticoid actions | 
C[C@]12CC[C@@H]3c4ccc(O)cc4CC[C@H]3[C@@H]1CC[C@@H]2O [estradiol, 17β-estradiol] |  |  |  |  | approximately 10%
